Test: RP, Waters ACQUITY Premier BEH C18, 100 × 2.1 mm, 1.7 µm, 40 °C, 0.3 to 0.4 mL/min, estimated dead time 0.73 min; A: water + 0.1% formic acid; B: acetonitrile + 0.1% formic acid; gradient (min/%B) 0/0.5 0.1/0.5 10/80 10.1/99.5 12/0.5 12.1/0.5 14.5/0.5
Conditions: stereoisomer not certain

SMILES | LC retention time [min]
CCCCCC(=O)NCC(=O)O [HEXANOYLGLYCINE] | 5.2
Nc1nc2c(ncn2C2OC(CO)C(O)C2O)c(=O)[nH]1 (stereo unspecified) [GUANOSINE] | 3.37
O=C(O)CCCCCCCCCO [10-HYDROXYDECANOATE] | 6.11
O=c1c(O)c(-c2ccc(O)cc2O)oc2cc(O)cc(O)c12 [MORIN] | 5.82
CC12CCC(=O)C=C1CCC1C2C(O)CC2(C)C(C(=O)CO)CCC12 (stereo unspecified) [CORTICOSTERONE] | 6.67
Oc1ccccc1O [PYROCATECHOL] | 3.85
O=c1cc(-c2ccccc2)oc2cc(O)cc(O)c12 [5,7-DIHYDROXYFLAVONE] | 7.23
N#CC(OC1OC(COC2OC(CO)C(O)C(O)C2O)C(O)C(O)C1O)c1ccccc1 (stereo unspecified) [AMYGDALIN] | 3.78
CC(C)CC(O)C(=O)O (stereo unspecified) [HYDROXYISOCAPROIC ACID] | 4.88
CCCC(=O)O [BUTANOATE] | 3.99
O=c1cc(-c2ccc(O)cc2)oc2cc(O)cc(O)c12 [APIGENIN] | 6.02
O=c1cc(C2Oc3cc(O)cc(O)c3CC2O)cc2c(C3Oc4cc(O)cc(O)c4CC3O)cc(O)c(O)c2c1O (stereo unspecified) [THEAFLAVIN] | 5.18
Nc1ccn(C2OC(COP(=O)(O)O)C(O)C2O)c(=O)n1 (stereo unspecified) [CYTIDINE MONOPHOSPHATE] | 0.941
CCCCCC1CCCC(=O)O1 (stereo unspecified) [DELTA-DECALACTONE] | 7.1
O=C(C=Cc1ccc(O)c(O)c1)OC1C(O)CC(O)(C(=O)O)CC1O (stereo unspecified) [CRYPTOCHLOROGENIC ACID] | 3.67
Oc1ccc(C2COc3cc(O)ccc3C2)cc1 (stereo unspecified) [EQUOL] | 6.57
O=C(O)c1ccc2ccccc2n1 [2-QUINOLINECARBOXYLATE] | 4.24
COC(=O)CCCC(=O)O [MONOMETHYLGLUTARATE] | 3.95
Cn1cnc2c1c(=O)[nH]c(=O)n2C [THEOBROMINE] | 3.71
CCCCCCCC(=O)OC(CC(=O)[O-])C[N+](C)(C)C [L-OCTANOYLCARNITINE] | 5.76
CCC(O)C(=O)O (stereo unspecified) [2-HYDROXYBUTYRATE] | 2.82
CC(C)(C(=O)O)C(=O)O [DIMETHYLMALONIC ACID] | 3.97
CCCCCCCCCCCC(=O)OC(CC(=O)O)C[N+](C)(C)C.[Cl-] (stereo unspecified) [ISTD_LAUROYL-CARNITINE-D3] | 7.14

SMILES | LC retention time [min]
CSCC[C@H](NC=O)C(=O)O [N-FORMYL-L-METHIONINE] | 4.06
CSc1ncnc2nc[nH]c12 [THIOPURINE S-METHYLETHER] | 4.31
CCC(C)C(=O)C(=O)O (stereo unspecified) [3-METHYL-2-OXOVALERATE] | 4.42
Cc1cc2nc[nH]c2cc1C [5,6 DIMETHYLBENZIMIDAZOLE] | 4.48
C=CC(C)(O)CCC1C(C)(O)CCC2C(C)(C)CCCC21C (stereo unspecified) [SCLAREOL] | 8.18
Cc1cn(C2OC(CO)C(O)C2O)c(=O)[nH]c1=O (stereo unspecified) [RIBOTHYMIDINE] | 1.24
O=C(O)c1ccc(O)cc1O [2,4-DIHYDROXYBENZOIC ACID] | 4
CCC(NC(=O)CCC(N)C(=O)O)C(=O)NCC(=O)O (stereo unspecified) [OPHTHALMATE] | 2.03
CC1CCC2(C(=O)O)CCC3(C)C(=CCC4C5(C)CC(O)C(O)C(C)(CO)C5CCC43C)C2C1C (stereo unspecified) [ASIATIC ACID] | 7.17
O=[N+]([O-])c1ccc(O)cc1O [2,4-DIHYDROXY-NITROPHENOL] | 6.02
Nc1ncnc2c1ncn2C1OC(COP(=O)(O)O)C(OP(=O)(O)O)C1O (stereo unspecified) [ADENOSINE 3',5'-DIPHOSPHATE] | 1.11
CC(CCC(=O)O)C1CCC2C3C(=O)CC4CC(O)CCC4(C)C3CC(O)C12C (stereo unspecified) [7-KETODEOXYCHOLATE] | 6.88
O=c1[nH]cnc2nc[nH]c12 [HYPOXANTHINE] | 1.76
CCCCCCCCCCCCCC=CC(O)C(N)CO (stereo unspecified) [SPHINGOSINE] | 7.39
CC(=O)NC(C)C(=O)O (stereo unspecified) [N-ACETYLALANINE] | 2.4
COc1cc(C=CC(=O)O)cc(OC)c1O [SINAPIC ACID] | 4.58
O=C(O)CCCCCCCCC(=O)O [SEBACATE] | 6.03
CC(CCC(=O)O)C1CCC2C3CCC4CC(O)CCC4(C)C3CCC12C (stereo unspecified) [LITHOCHOLATE] | 8.27
Cc1ncc(CO)c(CO)c1O [PYRIDOXINE] | 2.1
CCCCCCCCCCCCCCCCCC(=O)O [STEARATE] | 11
CSCCC(N)C(=O)O (stereo unspecified) [ISTD_METHIONINE-METHYL-D3] | 1.46
O=C(OCC1=CC(O)C2C=COC(OC3OC(CO)C(O)C(O)C3O)C12)c1ccc(O)cc1 (stereo unspecified) [AGNUSIDE] | 4.2
NC(=O)[C@@H](N)Cc1c[nH]c2ccccc12 [L-TRYPTOPHANAMIDE] | 3.9
